Results published in PubChem BioAssay (NCI).
Where “and” joins values, the source holds several entries; their conditions need not be identical. Identical values can stand only once.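 1) Cells in 96-well plates. 2) Compound, 48 h, 5 concentrations. 3) Linear interpolation between surrounding doses. 4) Unreached endpoint = highest concentration. Abbreviation: GI50, concentration required for 50% inhibition of growth. At the TGI there is no net growth.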

How the values were obtained:
Test in all cases: NCI-60 cell line screen, 48 h
[1] = system: ACHN renal
[2] = system: NCI-H522 lung
[3] = system: CAKI-1 renal
[4] = system: HCC-2998 colon
[5] = system: OVCAR-4 ovarian
[6] = system: NCI-H460 lung
[7] = system: HCT-116 colon
[8] = system: MDA-MB-435
[9] = system: MOLT-4 leukemia
[10] = system: M14 melanoma

Compound | GI50 [1] | TGI [1] | GI50 [2] | TGI [2] | GI50 [3] | TGI [3] | GI50 [4] | TGI [4] | GI50 [5] | TGI [5] | GI50 [6] | TGI [6] | GI50 [7] | TGI [7] | GI50 [8] | TGI [8] | GI50 [9] | TGI [9] | GI50 [10] | TGI [10]
CC1=C(/C=C/C(C)=C/C=C/C(C)=C/C=N/NC(=S)NC(=S)N/N=C/C=C(C)/C=C/C=C(C)/C=C/C2=C(C)CCCC2(C)C)C(C)(C)CCC1 | 5.14 µM and 2.3 µM | 11.4 µM and 7.9 µM | 0.286 µM and 0.181 µM | 1.07 µM and 0.795 µM | 1.6 µM and 0.853 µM | 7.12 µM and 2.9 µM | 6.73 µM and 4.07 µM | 13.5 µM and 11.8 µM | 1.74 µM and 1.22 µM | 7.84 µM and 5.4 µM | 2.35 µM and 1.66 µM | 8.68 µM and 6.36 µM | 1.91 µM and 0.916 µM | 8.4 µM and 2.23 µM | 1.17 µM and 0.84 µM | 4.49 µM and 2.14 µM | 1.16 µM and 0.667 µM | 6.09 µM and 2.45 µM | 1.24 µM and 0.918 µM | 3.73 µM and 1.74 µM
COc1ccc2c(C3(c4cn(C)c5cc(OC)ccc45)C(=O)Nc4ccc(Cl)cc43)cn(C)c2c1 | 3.32 µM | > 100 µM | 3.38 µM | 12.7 µM | 2.04 µM | > 100 µM | 6.35 µM | > 100 µM | 3.35 µM | > 100 µM | 3.29 µM | 11.7 µM | 3.15 µM | 19.7 µM | 2.51 µM | 7.77 µM | 2.58 µM | 8.01 µM | 4.19 µM | > 100 µM
CC1=CC(=O)C(C(C)C)=CC1=Nc1cc(Br)c(O)c(Br)c1 | 11.6 µM | 30.1 µM | 4.42 µM | 18 µM | 2.46 µM | 8.02 µM | 3.56 µM | 13 µM | 6.29 µM | 19.5 µM | 3.53 µM | 14.4 µM | 3.39 µM | 11.6 µM | 2.1 µM | 6.13 µM | 4.53 µM | 23.4 µM | 2.52 µM | 7.52 µM
COC(=O)C1OC2(CCCC3CC32)O[C@H]1C(=O)OC (stereo not given in full) |  | > 100 µM |  | > 100 µM |  | > 100 µM |  | > 100 µM |  | > 100 µM |  | > 100 µM |  | > 100 µM |  | > 100 µM |  | > 100 µM |  | > 100 µM
FC(F)(F)c1ccc(-c2cnc(-n3cc(COCCN4CCCCC4)nn3)nc2NC2CCCCCC2)cc1 | 4.53 µM | 8.39 µM | 3.93 µM | 7.99 µM | 3.51 µM | 7.33 µM | 3.93 µM | 7.44 µM | 3.11 µM | 6.35 µM | 4.57 µM | 8.84 µM | 3.32 µM | 7 µM | 3.74 µM | 7.76 µM | 3.73 µM | 9.26 µM | 4.34 µM | 9.01 µM
Clc1ccc(-c2nnc(-c3cccc4ccccc34)o2)cc1Cl |  | > 100 µM |  | > 100 µM |  | > 100 µM |  | > 100 µM |  | > 100 µM |  | > 100 µM |  | > 100 µM |  | > 100 µM |  | > 100 µM |  | > 100 µM
CN(COC(=O)c1ccccc1)c1nc(N(C)COC(=O)c2ccccc2)nc(N(C)COC(=O)c2ccccc2)n1 |  | 78.7 µM |  | > 100 µM |  | > 86.2 µM |  | > 100 µM |  | > 100 µM |  | > 100 µM |  | > 100 µM |  | > 100 µM |  | > 100 µM |  | > 100 µM
